Data as given in patent publication US5708063A, “Photochromic compound” (Tokuyama Corporation, priority 1993, dated 1998).

What was measured:
Format in all cases: physicochemical
[1] = Photochromic PMMA cast film: initial coloration density, maximum absorption wavelength and fatigue life in xenon fadeometer (Example 9); conditions: PMMA cast film 0.1 mm; for λmax / Initial color density: xenon light; for Initial color density / T1/2: no stabilizer; for T1/2: time for color density to fall to half of initial value, xenon fadeometer;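 on Initial color density: initial color density is an absorbance value so the % unit is wrong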
Excerpt: The thickness of the cast film was adjusted to 0.1 mm.
(§1) T1/2 is defined as the time required for the color density to decrease to half of its initial value when the film is exposed to the fadeometer.

[2] = Fatigue life of photochromic PMMA cast film with ultraviolet stabilizer, xenon fadeometer (Examples 11-14)
Experimental: One hundred parts by weight of benzene, 10 parts by weight of poly(methyl methacrylate), 0.2 part […] The solution was cast on a slide glass (11.2×3.7 cm) to form a cast film having a thickness of 0.1 mm.
The fatigue life of photochromic film was measured as in Example 9 by a xenon long-life fadeometer (FAL-25AX-HC made by Suga Testing Instrument Co., Ltd.).
Example 11 was repeated except that the fulgimide compound obtained in Example 2 was used instead of fulgimide compound used in Example 11.
Example 11 was repeated except that the fulgimide or fulgide compounds shown in Table 28 were used instead of the fulgimide compounds in Example 11, and Cyasorb UV1084 was used as the ultraviolet stabilizer.

[3] = Fatigue life of fulgide/fulgimide and chromene compound in polymerized methacrylate plate (Example 15); conditions: 0.05 part
Experimental: (§2) […] The mixed solution was injected into a mold which was made of a glass plate and a gasket formed of an ethylene-vinyl acetate copolymer, and was heated to a temperature of 35° to 90° C. in an air oven over a period of 20 hours for polymerization. After the polymerization was over, the polymer was withdrawn from the glass plate of the mold.
(§3) The resulting polymerized plate was irradiated with sunlight for 10 minutes. On this occasion, a color tone of said plate was visually observed. In this polymerized plate, the fulgide or fulgimide compound and the chromene compound were measured for fatigue life in the same manner as in Example 9. Further, a color tone of the polymerized plate was visually observed in T1/2 (hrs.) of the fulgide or fulgimide compound.

[4] = Durability of poly(allyl diglycol carbonate) lens impregnated with the compound in silicone oil, as in Example 9 (Example 10); set-up: Initial color density: unit not given here; conditions: silicone oil impregnation; for Initial color density: 1.0×10^-4 mole/g; for T1/2: xenon fadeometer
Experimental: as §1
The solution was impregnated in the surface of a lens composed of poly(allyl diglycol carbonate) at 200° C. for 1 hour. The concentration of the solution was adjusted to 1.0×10^-4 mole/g.

[5] = Visual color tone of polymerized plate under sunlight (Example 15); conditions: 0.05 part
Experimental: as §2, §3

[6] = PMMA film, UV stabilizer Cyasorb UV1084, 0.2 part
[7] = PMMA film, UV stabilizer Chimassorb 944, 0.2 part
[8] = PMMA film, UV stabilizer Cyasorb 3346, 0.2 part
[9] = PMMA film, UV stabilizer Irgastab 2002, 0.2 part
[10] = PMMA film, UV stabilizer Rylex NBC, 0.2 part
[11] = PMMA film, UV stabilizer Spinuvex A-36, 0.2 part
[12] = PMMA film, UV stabilizer Tinuvin 144, 0.2 part
[13] = PMMA film, UV stabilizer Tinuvin 622, 0.2 part
[14] = PMMA film, UV stabilizer Tinuvin 765, 0.2 part
[15] = PMMA film, UV stabilizer UV Chek AM101, 0.2 part
[16] = PMMA film, UV stabilizer UV Chek AM105, 0.2 part

Row | Structure (SMILES) | λmax [1] [nm] | Initial color density [1] [%] | T1/2 [1] [h] | T1/2 [2, 6] [h] | λmax [4] [nm] | Initial color density [4] | T1/2 [4] [h] | further results
1 | CCOC1CC1C1=C2C(=O)N(C(C#N)CC)C(=O)C2C2(c3sc(OC)c(C)c31)C1CC3CC(C1)CC2C3 (centres unmarked) [(36)] | 576 |  | 88 |  | 582 | 0.77 | 95 | T1/2 of fulgide or fulgimide compound ([3]; with chromene 2 (0.03 part)): 206 h; Color tone in T0 ([5]; with chromene 2 (0.03 part)): gray; Color tone in T1/2 ([5]; with chromene 2 (0.03 part)): gray
2 | N#CCN1C(=O)C2=C(C3CC3)c3ccsc3C3(C4CCC3CC4)C2C1=O (centres unmarked) [(2), N-cyanomethyl-4-cyclopropyl-6,7-dihydridospirobenzo[5,6-b]thiophenedicarboxyimido-7,7'-bicyclo[2.2.1]heptane] | 563 | 0.78 | 89 | 350 | 568 | 0.71 | 91 | T1/2 [2, 7]: 325 h; T1/2 [2, 8]: 385 h; T1/2 ([2]; PMMA film, UV stabilizer Cyasorb UV1084, 0.2 part, listed as Example 2): 355 h; T1/2 [2, 9]: 340 h; T1/2 [2, 10]: 369 h; T1/2 [2, 11]: 346 h; T1/2 [2, 12]: 355 h; T1/2 [2, 13]: 375 h; T1/2 [2, 14]: 373 h; T1/2 [2, 15]: 336 h; T1/2 [2, 16]: 308 h
3 | O=C1OC(=O)C2C1=C(C1CC1C(F)(F)F)c1sc(Br)cc1C21C2CCC1CC2 (centres unmarked) [(50)] | 518 | 0.90 | 48 | 200 |  |  |  | 
4 | O=C(CN1C(=O)C2=C(C3CC3)c3c(sc4c3CCCC4)C3(C4CC5CC(C4)CC3C5)C2C1=O)NCCCl (centres unmarked) [(46)] |  | 0.71 | 59 |  |  |  |  | T1/2 of fulgide or fulgimide compound ([3]; with chromene 5 (0.07 part)): 148 h; Color tone in T0 ([5]; with chromene 5 (0.07 part)): amber; Color tone in T1/2 ([5]; with chromene 5 (0.07 part)): amber
5 | CCOC(=O)OCN1C(=O)C2=C(C3CC3c3ccccc3)c3cc(OCC)sc3C3(C4CC5CC(C)(C4)CC3(C)C5)C2C1=O (centres unmarked) [(41)] | 557 | 0.82 | 65 | 263 |  |  |  | 
6 | Cc1cc2c(n1C)C1(C3CC4CC(F)(C3)CC1(F)C4)C1C(=O)N(C3CCC([N+](=O)[O-])CC3)C(=O)C1=C2C1CC1 (centres unmarked) [(40)] | 532 | 0.77 | 71 | 280 | 535 | 0.70 | 74 | 
7 | O=C1OC(=O)C2C1=C(C1CC1)c1cc(Br)sc1C21C2CC3CC(C2)CC1C3 (centres unmarked) [(7), 2-bromo-4-cyclopropyl-6,7-dihydridospirobenzo[5,6-b]thiophenedicarboxyanhydride-7,2'-tricyclo[3.1.1^3.7]decane] | 529 | 1.21 | 54 | 220 |  |  |  | 
8 | O=C1OC(=O)C2C1=C(C1CC1)c1cc([N+](=O)[O-])sc1C21C2CC3CC(C2)CC1C3 (centres unmarked) [(59)] | 524 | 1.21 | 57 | 228 |  |  |  | 
9 | O=C1OC(=O)C2C1=C(C1CC1)c1c(sc3c1CCCC3)C21C2CCCC1CCC2 (centres unmarked) [(54)] | 568 | 1.09 | 52 |  | 573 | 0.99 | 54 | T1/2 of fulgide or fulgimide compound ([3]; with chromene 2 (0.03 part)): 134 h; Color tone in T0 ([5]; with chromene 2 (0.03 part)): gray; Color tone in T1/2 ([5]; with chromene 2 (0.03 part)): brown
10 | CNC(=O)CCC(=O)CCN1C(=O)C2=C(C3CC3SC)c3ccn(C)c3C3(C4CCC3(C)CC4)C2C1=O (centres unmarked) [(15)] | 613 | 0.69 | 65 |  |  |  |  | T1/2 of fulgide or fulgimide compound ([3]; with chromene 5 (0.04 part)): 160 h; Color tone in T0 ([5]; with chromene 5 (0.04 part)): green; Color tone in T1/2 ([5]; with chromene 5 (0.04 part)): light gray

Continued, in another order:

Row | λmax [1] [nm] | Initial color density [1] [%] | T1/2 [1] [h] | T1/2 [2, 6] [h] | λmax [4] [nm] | Initial color density [4] | T1/2 [4] [h] | Structure (SMILES) | further results
11 | 559 | 1.21 | 55 | 220 |  |  |  | CCn1c2c(c3ccccc31)C(C1CC1)=C1C(=O)OC(=O)C1C21C2CC3CC1CC(C)(C3)C2 (centres unmarked) [(57)] | 
12 | 610 | 0.83 | 80 |  | 615 | 0.82 | 85 | CC(=O)CN1C(=O)C2=C(C3CC3C)c3cc(-c4ccccc4)sc3C3(C4CCC3CC4)C2C1=O (centres unmarked) [(10)] | T1/2 of fulgide or fulgimide compound ([3]; with chromene 3 (0.08 part)): 190 h; Color tone in T0 ([5]; with chromene 3 (0.08 part)): green; Color tone in T1/2 ([5]; with chromene 3 (0.08 part)): bluish gray
13 | 576 | 0.75 | 62 |  |  |  |  | CCn1c2c(c3ccccc31)C(C1CC1C(=O)O)=C1C(=O)N(CC(=O)OCCC#N)C(=O)C1C21C2CC3CC(O)(C2)CC1(O)C3 (centres unmarked) [(44)] | T1/2 of fulgide or fulgimide compound ([3]; with chromene 3 (0.08 part)): 154 h; Color tone in T0 ([5]; with chromene 3 (0.08 part)): gray; Color tone in T1/2 ([5]; with chromene 3 (0.08 part)): gray
14 | 549 | 0.85 | 77 | 310 | 554 | 0.78 | 82 | COC(=O)CN1C(=O)C2=C(C3CC3)c3ccsc3C3(C4CCC3CC4)C2C1=O (centres unmarked) [(1), 4-cyclopropyl-6,7-dihydrdo-N-methoxycarbonylmethylspirobenzo[5,6-b]thiophenedicarboxyimido-7,7'-bicyclo[2.2.1]heptane] | T1/2 ([2]; Cyasorb UV1084, amount added 0.002, 1 part per 100 parts fulgimide): 220 h; T1/2 ([2]; Cyasorb UV1084, amount added 0.1, 50 parts per 100 parts fulgimide): 293 h; T1/2 ([2]; Cyasorb UV1084, amount added 0.8, 400 parts per 100 parts fulgimide): 330 h; T1/2 ([2]; Cyasorb UV1084, amount added 20, 10000 parts per 100 parts fulgimide): 367 h; T1/2 [2, 7]: 283 h; T1/2 [2, 8]: 336 h; T1/2 [2, 9]: 299 h; T1/2 [2, 10]: 323 h; T1/2 [2, 11]: 302 h; T1/2 [2, 12]: 310 h; T1/2 [2, 13]: 327 h; T1/2 [2, 14]: 325 h; T1/2 [2, 15]: 295 h; T1/2 [2, 16]: 272 h; T1/2 ([2]; Tinuvin 765, amount added 0.002, 1 part per 100 parts fulgimide): 213 h; T1/2 ([2]; Tinuvin 765, amount added 0.1, 50 parts per 100 parts fulgimide): 307 h; T1/2 ([2]; Tinuvin 765, amount added 0.8, 400 parts per 100 parts fulgimide): 340 h; T1/2 ([2]; Tinuvin 765, amount added 20, 10000 parts per 100 parts fulgimide): 375 h
15 | 613 | 0.78 | 71 |  |  |  |  | NC1CC1C1=C2C(=O)N(COC(=O)Cc3cccc4ccccc34)C(=O)C2C2(c3c1ccn3-c1ccccc1)C1(O)CCC2(O)CC1 (centres unmarked) [(21)] | T1/2 of fulgide or fulgimide compound ([3]; with chromene 2 (0.03 part)): 172 h; Color tone in T0 ([5]; with chromene 2 (0.03 part)): green; Color tone in T1/2 ([5]; with chromene 2 (0.03 part)): green
16 | 569 | 0.73 | 78 |  | 571 | 0.68 | 85 | CCCC1CC1C1=C2C(=O)N(C(C)C(C)=O)C(=O)C2C2(c3oc(OC)cc31)C1CCCC2CCC1 (centres unmarked) [(30)] | T1/2 of fulgide or fulgimide compound ([3]; with chromene 1 (0.03 part)): 186 h; Color tone in T0 ([5]; with chromene 1 (0.03 part)): gray; Color tone in T1/2 ([5]; with chromene 1 (0.03 part)): gray
17 | 532 | 0.69 | 61 | 244 |  |  |  | CCC(C(=O)OCCc1ccc2ccccc2c1)N1C(=O)C2=C(C3CC3)c3ccsc3C3(C4CC5CC(C4)CC3C5)C2C1=O (centres unmarked) [(5)] | 
18 | 564 | 1.15 | 58 | 235 |  |  |  | O=C1OC(=O)C2C1=C(C1CC1)c1c(sc3ccccc13)C21C2CCC1CC2 (centres unmarked) [(49)] | 
19 | 549 | 0.72 | 57 | 210 |  |  |  | O=C(CCCCN1C(=O)C2=C(C3CC3)c3ccsc3C3(C4CC5CC(C4)CC3C5)C2C1=O)OCCc1ccc2ccccc2c1 (centres unmarked) [(6)] | 
